# Measurements: patent EP4610269A1, “UROKINASE PLASMINOGEN ACTIVATOR SURFACE RECEPTOR (UPAR) LIGANDS FOR DIAGNOSTIC OR THERAPEUTIC USE” (3B Pharmaceuticals GmbH, priority 2024, dated 2025)
# Where two headings read alike, the source gives them in different places. *1 amine or outer side, *2 acyl side, *3 side chain or, on linkers, in order; H or OH if unused. Where a SMILES comes first, the peptide text is derived from it. Bridges are numbered along the chain shown (N, C = ends). [ ]: non-standard residue; d: D form. The star is where a group is joined. Pro(trans-4-NH2) = O=C([C@@H]1C[C@@H](N[*:3])CN1[*:1])[*:2]; DOTA = O=C(O)CN1CCN(CC(=O)O)CCN(CC(=O)*)CCN(CC(=O)O)CC1; Phe(4-CONH2) = NC(=O)c1ccc(C[C@H](N)C(=O)O)cc1; Pro(cis-4-F) = O=C(O)[C@@H]1C[C@H](F)CN1; Hyp = O=C(O)[C@@H]1C[C@@H](O)CN1; 3Pal = N[C@@H](Cc1cccnc1)C(=O)O; Pentanoyl(4-Me) = CC(C)CCC(=O)*; Cit = NC(=O)NCCC[C@H](N)C(=O)O; Butoxycarbonyl = CCCCOC(=O)*; Suc = O=C(CCC(=O)[*:2])[*:1]; Orn = NCCC[C@H](N)C(=O)O; Nva = CCC[C@H](N)C(=O)O; Pentanoyl = CCCCC(=O)*; AEEA = NCCOCCOCC(=O)O
# What was measured:
# [1] = target: T1, Recombinant soluble human NEP (Homo sapiens, UniProt P08473); assay: Proteolytic stability assay against NEP; assay type: in vitro ADME; conditions: recombinant soluble human NEP, human NEP 100 ng/mL, compound 10 µM, 37°C, LC-MS quantification, read-out: % intact compound remaining after 24h incubation
# T1 construct: Recombinant soluble human NEP; purchased BioTechne, Wiesbaden, Germany
# Description: To assess the stability of compounds against NEP, the compounds were subjected to an in vitro assay based on the protocol described by Edelson et al. (Edelson, Makhlina et al. 2013).
# Recombinant soluble human NEP (BioTechne, Wiesbaden, Germany) at a concentration of 100 ng/mL was mixed with the compound (10 µM) and a stable internal standard (10 µM) and incubated at 37°C. After several time points, samples were taken and analyzed with LC-MS.
# The determination of the analyte in the clean sample solutions was performed on an Agilent 1290 UHPLC system coupled to an Agilent 6530 Q-TOF mass spectrometer. The chromatographic separation was carried out on a Phenomenex BioZen XB-C18 HPLC column (50 × 2 mm, 1.7 µm particle size) with gradient elution using a mixture of 0.1% formic acid in water as eluent A and acetonitrile as eluent B (2% B to 41% in 7 min, 800 µl/min, 40°C). Mass spectrometric detection was performed in positive ion ESI mode by scanning the mass range from m/z 50 to 3000 with a sampling rate of 2 / sec.
# From the mass spectrometric raw data the ion currents for the double or triple charged monoisotopic signal was extracted for both, the compound and the internal standard.
# Quantitation was performed by external matrix calibration with internal standard using the integrated analyte signals.
# The activity of NEP was examined using a commercially available chromogenic substrate of NEP.
# The result is stated as "% intact compound remaining after 24 h incubation" and means that from the amount of material at the start of the experiment the stated percentage is detected as unchanged material at the end of the experiment by LC-MS quantification. Since all compounds are more than 50% intact after 24 h they are considered as stable enough for diagnostic and therapeutic applications. Table 14: Results of the NEP stability assay
# [2] = target: T2, human uPAR (uPAR-Fc) (Homo sapiens, UniProt Q03405); assay: Surface plasmon resonance (SPR) assay, single cycle kinetics; assay type: binding; conditions: pKD category for uPAR SPR activity assay, uPAR-Fc on Protein A-Chip, 25°C, read-out: pKD CAT (converted)
# T2 construct: comprising amino acids Leu23-Arg303 according to UniProt entry Q03405.1; purchased R&D Systems 10378-UK-100
# How it was run: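 uPAR-Fc (Leu23-Arg303 extracellular domains, human IgG1 Fc) captured on Protein A chip to ~2000 RU; single-cycle kinetics at 25°C in HEPES running buffer pH 7.4 with 0.1% DMSO. KD from double-referenced sensorgrams fitted to 1:1 Langmuir model, reported as pKD.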
# T1 sequence (P08473 52-750 limits assumed): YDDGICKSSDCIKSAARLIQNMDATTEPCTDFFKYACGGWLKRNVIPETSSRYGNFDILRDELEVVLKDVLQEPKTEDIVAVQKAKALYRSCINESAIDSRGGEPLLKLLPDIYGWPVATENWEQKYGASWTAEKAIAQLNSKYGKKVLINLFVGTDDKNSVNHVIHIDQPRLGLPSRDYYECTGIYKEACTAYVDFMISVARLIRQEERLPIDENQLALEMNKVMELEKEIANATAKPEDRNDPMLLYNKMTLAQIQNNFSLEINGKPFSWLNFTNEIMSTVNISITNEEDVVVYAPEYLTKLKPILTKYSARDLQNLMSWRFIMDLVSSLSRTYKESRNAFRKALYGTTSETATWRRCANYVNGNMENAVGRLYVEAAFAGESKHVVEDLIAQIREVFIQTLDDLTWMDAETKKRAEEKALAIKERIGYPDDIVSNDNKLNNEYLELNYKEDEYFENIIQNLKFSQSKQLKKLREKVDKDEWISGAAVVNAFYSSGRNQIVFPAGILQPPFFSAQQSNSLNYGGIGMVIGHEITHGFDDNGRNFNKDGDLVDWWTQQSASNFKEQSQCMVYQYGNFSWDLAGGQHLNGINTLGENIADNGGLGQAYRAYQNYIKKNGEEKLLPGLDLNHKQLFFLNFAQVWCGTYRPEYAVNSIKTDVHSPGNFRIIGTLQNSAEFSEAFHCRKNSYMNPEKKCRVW
# T2 sequence (Q03405 23-303): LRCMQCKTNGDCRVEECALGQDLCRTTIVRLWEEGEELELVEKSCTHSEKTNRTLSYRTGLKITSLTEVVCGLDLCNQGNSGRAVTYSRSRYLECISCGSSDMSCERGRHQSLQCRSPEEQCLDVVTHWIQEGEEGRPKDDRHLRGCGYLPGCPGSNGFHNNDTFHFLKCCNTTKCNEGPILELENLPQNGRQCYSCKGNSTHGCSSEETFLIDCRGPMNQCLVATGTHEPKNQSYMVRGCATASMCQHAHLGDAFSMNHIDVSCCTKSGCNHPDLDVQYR
SMILES,"remaining at 24 h, 10 µM [1]",Kd [2],Kd ([2]; single cycle kinetics)
"CCCCC(=O)N[C@H]1CSSC[C@@H](C(N)=O)NC(=O)[C@H](CCC)NC(=O)[C@H]([C@@H](C)CC)NC(=O)[C@@H]2C[C@@H](O)CN2C(=O)[C@@H]2CCCN2C(=O)[C@H](Cc2ccccc2)NC(=O)[C@H](Cc2cccnc2)NC(=O)[C@H](CCCCNC(=O)CN2CCN(CC(=O)O)CCN(CC(=O)O)CCN(CC(=O)O)CC2)NC(=O)[C@H](CCCNC(N)=O)NC1=O [UPAR-138, Pent-[Cys-Cit-Lys(DOTA)-Mpa-Phe-Pro-Hyp-Ile-Nva-Cys]-NH2] (Pentanoyl-C[Cit]K(DOTA)[3Pal]FP[Hyp]I[Nva]C-NH2; disulfide 1-10)",94%,< 1.58 nM,
"CC[C@H](C)[C@@H]1NC(=O)[C@@H]2C[C@@H](O)CN2C(=O)[C@@H]2CCCN2C(=O)[C@H](Cc2ccccc2)NC(=O)[C@H](Cc2ccc(O)cc2)NC(=O)[C@H](CCC(N)=O)NC(=O)[C@H](CCCNC(N)=O)NC(=O)[C@@H](NC(=O)CCC(C)C)CSSC[C@@H](C(N)=O)NC(=O)[C@H](CC(C)C)NC1=O [UPAR-174, iHex-[Cys-Cit-Gln-Tyr-Phe-Pro-Hyp-Ile-Leu-Cys]-NH2] ({Pentanoyl(4-Me)}-C[Cit]QYFP[Hyp]ILC-NH2; disulfide 1-10)",90%,< 1.58 nM,
"CC[C@H](C)[C@@H]1NC(=O)[C@@H](C)NC(=O)[C@@H]2CCCN2C(=O)[C@H](Cc2ccccc2)NC(=O)[C@H](Cc2ccc(O)cc2)NC(=O)[C@H](CCCCNC(=O)CN2CCN(CC(=O)O)CCN(CC(=O)O)CCN(CC(=O)O)CC2)NC(=O)[C@H](CCCNC(N)=O)NC(=O)[C@@H](NC(=O)[C@H](CC(C)C)NC(=O)[C@H](CC(=O)O)NC(C)=O)CSSC[C@@H](C(N)=O)NC(=O)[C@H](CC(C)C)NC1=O [UPAR-189, Ac-Asp-Leu-[Cys-Cit-Lys(DOTA)-Tyr-Phe-Pro-ala-Ile-Leu-Cys]-NH2] (Ac-DLC[Cit]K(DOTA)YFP[dA]ILC-NH2; disulfide 3-12)",94%,< 1.58 nM,
"CC[C@H](C)[C@@H]1NC(=O)[C@@H]2CCCN2C(=O)[C@@H]2CCCN2C(=O)[C@H](Cc2ccccc2)NC(=O)[C@H](Cc2ccc(O)cc2)NC(=O)[C@H](CCC(N)=O)NC(=O)[C@H](CCCNC(N)=O)NC(=O)[C@@H](NC(=O)[C@H](CC(C)C)NC(=O)COCCOCCNC(=O)CN2CCN(CC(=O)O)CCN(CC(=O)O)CCN(CC(=O)O)CC2)CSSC[C@@H](C(N)=O)NC(=O)[C@H](CC(C)C)NC1=O [UPAR-229, DOTA-O2Oc-Leu-[Cys-Cit-Gln-Tyr-Phe-Pro-Pro-Ile-Leu-Cys]-NHz] ({DOTA-AEEA}-LC[Cit]QYFPPILC-NH2; disulfide 2-11)",84%,< 1.58 nM,
"CC[C@H](C)[C@@H]1NC(=O)[C@@H](C)NC(=O)[C@@H]2CCCN2C(=O)[C@H](Cc2ccccc2)NC(=O)[C@H](Cc2ccc(O)cc2)NC(=O)[C@H](CCC(N)=O)NC(=O)[C@H](CCCNC(N)=O)NC(=O)[C@@H](NC(=O)[C@H](CC(C)C)NC(=O)COCCOCCNC(=O)CN2CCN(CC(=O)O)CCN(CC(=O)O)CCN(CC(=O)O)CC2)CSSC[C@@H](C(N)=O)NC(=O)[C@H](CC(C)C)NC1=O [UPAR-245, DOTA-O2Oc-Leu-[Cys-Cit-Gln-Tyr-Phe-Pro-ala-Ile-Leu-Cys]-NH2] ({DOTA-AEEA}-LC[Cit]QYFP[dA]ILC-NH2; disulfide 2-11)",72%,< 1.58 nM,
"CCCCC(=O)N[C@H]1CSSC[C@@H](C(N)=O)NC(=O)[C@H](CCC)NC(=O)[C@H]([C@@H](C)CC)NC(=O)[C@@H]2C[C@@H](O)CN2C(=O)[C@@H]2CCCN2C(=O)[C@H](Cc2ccccc2)NC(=O)[C@H](Cc2ccc(O)cc2)NC(=O)[C@H](CCCCNC(=O)CN2CCN(CC(=O)O)CCN(CC(=O)O)CCN(CC(=O)O)CC2)NC(=O)[C@H](CCCNC(N)=O)NC1=O [UPAR-261, Pent-[Cys-Cit-Lys(DOTA)-Tyr-Phe-Pro-Hyp-Ile-Nva-Cys]-NH2] (Pentanoyl-C[Cit]K(DOTA)YFP[Hyp]I[Nva]C-NH2; disulfide 1-10)",86%,< 1.58 nM,
"CCCCOC(=O)N[C@H]1CSSC[C@@H](C(N)=O)NC(=O)[C@H](CCC)NC(=O)[C@H]([C@@H](C)CC)NC(=O)[C@@H]2C[C@@H](O)CN2C(=O)[C@@H]2C[C@H](F)CN2C(=O)[C@H](Cc2ccccc2)NC(=O)[C@H](Cc2ccc(C(N)=O)cc2)NC(=O)[C@H](CCCNC(=O)CN2CCN(CC(=O)O)CCN(CC(=O)O)CCN(CC(=O)O)CC2)NC(=O)[C@H]([C@@H](C)O)NC1=O [UPAR-276, Butoc-[Cys-Thr-Orn(DOTA)-Pcnf-Phe-4Cfp-Hyp-Ile-Nva-Cys]-NHz] (Butoxycarbonyl-CT[Orn](DOTA)[Phe(4-CONH2)]F[Pro(cis-4-F)][Hyp]I[Nva]C-NH2; disulfide 1-10)",88%,< 1.58 nM,
"CCC[C@H](NC(=O)CCC(=O)O)C(=O)N[C@H]1CSSC[C@@H](C(N)=O)NC(=O)[C@H](CCC)NC(=O)[C@H]([C@@H](C)CC)NC(=O)[C@@H]2C[C@@H](O)CN2C(=O)[C@@H]2CCCN2C(=O)[C@H](Cc2ccccc2)NC(=O)[C@H](Cc2ccc(O)cc2)NC(=O)[C@H](CCCCNC(=O)CN2CCN(CC(=O)O)CCN(CC(=O)O)CCN(CC(=O)O)CC2)NC(=O)[C@H](CCCNC(N)=O)NC1=O [UPAR-293, HO-Succinyl-Nva-[Cys-Cit-Lys(DOTA)-Tyr-Phe-Pro-Hyp-Ile-Nva-Cys]-NH2] (Suc-[Nva]C[Cit]K(DOTA)YFP[Hyp]I[Nva]C-NH2; disulfide 2-11)",> 95%,< 1.58 nM,
"CC[C@H](C)[C@@H]1NC(=O)[C@@H](CCCNC(=N)N)NC(=O)[C@@H]2CCCN2C(=O)[C@H](Cc2ccccc2)NC(=O)[C@H](Cc2ccc(O)cc2)NC(=O)[C@H](CCCCNC(=O)CN2CCN(CC(=O)O)CCN(CC(=O)O)CCN(CC(=O)O)CC2)NC(=O)[C@H](CCCNC(N)=O)NC(=O)[C@@H](NC(=O)[C@H](CC(C)C)NC(=O)[C@H](CC(=O)O)NC(C)=O)CSSC[C@@H](C(N)=O)NC(=O)[C@H](CC(C)C)NC1=O [UPAR-306, Ac-Asp-Leu-[Cys-Cit-Lys(DOTA)-Tyr-Phe-Pro-arg-Ile-Leu-Cys]-NH2] (Ac-DLC[Cit]K(DOTA)YFP[dR]ILC-NH2; disulfide 3-12)",88%,< 1.58 nM,
"CC[C@H](C)[C@@H]1NC(=O)[C@@H](C)NC(=O)[C@@H]2CCCN2C(=O)[C@H](Cc2ccccc2)NC(=O)[C@H](Cc2ccc(O)cc2)NC(=O)[C@H](CCC(N)=O)NC(=O)[C@H](CCCNC(N)=O)NC(=O)[C@@H](NC(=O)CCC(C)C)CSSC[C@@H](C(N)=O)NC(=O)[C@H](CC(C)C)NC1=O [UPAR-338, iHex-[Cys-Cit-Gln-Tyr-Phe-Pro-ala-Ile-Leu-Cys]-NH2] ({Pentanoyl(4-Me)}-C[Cit]QYFP[dA]ILC-NH2; disulfide 1-10)",70%,< 1.58 nM,
"CC[C@H](C)[C@@H]1NC(=O)[C@@H]2CCCN2C(=O)[C@@H]2CCCN2C(=O)[C@H](Cc2ccccc2)NC(=O)[C@H](Cc2ccc(O)cc2)NC(=O)[C@H](CCCCNC(=O)CN2CCN(CC(=O)O)CCN(CC(=O)O)CCN(CC(=O)O)CC2)NC(=O)[C@H](CCCNC(N)=O)NC(=O)[C@@H](NC(=O)CCC(C)C)CSSC[C@@H](C(N)=O)NC(=O)[C@H](CC(C)C)NC1=O [UPAR-382, iHex-[Cys-Cit-Lys(DOTA)-Tyr-Phe-Pro-Pro-Ile-Leu-Cys]-NHz] ({Pentanoyl(4-Me)}-C[Cit]K(DOTA)YFPPILC-NH2; disulfide 1-10)",> 95%,,< 1.58 nM
"CC[C@H](C)[C@@H]1NC(=O)[C@@H]2C[C@@H](NC(=O)CN3CCN(CC(=O)O)CCN(CC(=O)O)CCN(CC(=O)O)CC3)CN2C(=O)[C@@H]2CCCN2C(=O)[C@H](Cc2ccccc2)NC(=O)[C@H](Cc2ccc(O)cc2)NC(=O)[C@H](CCC(N)=O)NC(=O)[C@H](CCCNC(N)=O)NC(=O)[C@@H](NC(=O)CCC(C)C)CSSC[C@@H](C(N)=O)NC(=O)[C@H](CC(C)C)NC1=O [UPAR-389, iHex-[Cys-Cit-Gln-Tyr-Phe-Pro-Tap(DOTA)-Ile-Leu-Cys]-NH2] ({Pentanoyl(4-Me)}-C[Cit]QYFP[Pro(trans-4-NH2)](DOTA)ILC-NH2; disulfide 1-10)",> 95%,,< 1.58 nM
